# Legend:
# [1] = system: CF1 male mice, carrageenan induced edema; assay: Anti-inflammatory screen in mice (carrageenan induced foot edema); type: in vivo; settings: for reduction of edema: 16 mg/kg X 2
# Excerpt: Few reports in the literature indicate interaction at these receptor sites other than by peptides or antibodies. […] Blocking these receptors is desirable because the entire inflammation cascade of events is triggered by the early release of TNFa and IL-1. […] Radioisotopes were obtained from New England Nuclear [Dupont, Boston, MA] and substrates and co- factors were obtained from Sigma Chemical Co. [St. Louis, MO]. […] Cell lines were obtained from American Type Culture Collection [Rockville, MD]. In Vivo Tests Anti-inflammatory screen in mice: Male CF male mice weighing 28-32g obtained from Jackson Lab. […] Evaluation of the induced edema was made by injecting 2% carrageenan in 0.9% saline into the plantar region of the foot. The opposite foot injected with 0.9% isotonic saline was used as a base line. […] Salmonella abortus equi [Lot # 69F4003] […] Drugs from 2 to 16 mg/kg, I.P. were administered 2 hr prior and 2 hr post-injection of the LPS and then subsequently for every 24 hr for the length ofthe animals' lives. Deaths were recorded every 12 hr and continued for 96 hr. […] In vitro TNFa andIL-1 Measurements and Cellular Regulation IC-21 mouse macrophages were maintained in RPMI-1640 + 10% FCS + P/S. After the cells had grown to confluency, E. coli LPS at 10 Ixg/ml was added to the medium. Agents were incubated at 12.5 to 100 µM final concentration for 18 hr. The medium (100 btl) was collected for TNFCt determinations. Interleukin-1 [IL-1] release was determined using P388D1 cells which were maintained in RPMI-1640 + 10% FCS + P/S. The L929 bioassay was used to quantitate the TNF and the IL-1 levels. The L929 mouse fibroblasts were grown in DMEM + 10% FCS + P/S to confluency in 96 well plates and incubated with 100 tl ofmedium from […] or P388D cells after 18 hr. The cells were stained with 0.2% crystal violet in 20% MeOH and read at 580 nm using a Molecular Devices scanner (SOFT-max program). High Affinity Binding to Receptors on L929-106 Cells Two laCi of 125I-TNFct (human recombinant, 30 mCi/tg New England Nuclear) or 125I-IL-1 (70-120[.t Ci/lxg,New England Nuclear) was added to confluency L929 cells for 90 min or 5 hr, respectively with 25, 50 and 100 tM of the test compounds 12]. The cells were washed repeatedly with isotonic saline, pH.7.2 and aliquots counted. Prostaglandin cylcooxygenase activity Mouse J774AI macrophages maintained in Dulbecco's modified Eagle's medium + 15% FCS + P/S. Cells (5 x 106) were incubated with agents (5 to 100 ].tM final concentration) and 3H-arachidonic acid (100 Ci/mol) for 60 min at 37C in a CO2 incubator. The reaction was terminated with 2N HCI, the mixture extracted 2 X with ether, and the organic layer evaporated.
# [2] = target: human leukocyte elastase (RPMI 1788); assay: Elastase activity in human leukocytes RPMI 1788; type: biochemical
# [3] = target: J774-A1 macrophage elastase; assay: Elastase activity in J774-A1 macrophages; type: biochemical, mouse
# [4] = system: CF1 male mice, LPS Salmonella abortus equi induced death; assay: Protection against septic shock (LPS induced endotoxic shock); type: in vivo; settings: for Percent Survival at 52 hr: LPS 10 mg/kg, CF1 male mice, N=6
# Excerpt: (§1) Few reports in the literature indicate interaction at these receptor sites other than by peptides or antibodies. […] Blocking these receptors is desirable because the entire inflammation cascade of events is triggered by the early release of TNFa and IL-1. […] Radioisotopes were obtained from New England Nuclear [Dupont, Boston, MA] and substrates and co- factors were obtained from Sigma Chemical Co. [St. Louis, MO]. […] Cell lines were obtained from American Type Culture Collection [Rockville, MD]. In Vivo Tests Anti-inflammatory screen in mice: Male CF male mice weighing 28-32g obtained from Jackson Lab. [Bar Harbor, […]] were used to screen agents at 8 or 16 mg/kg intraperitoneal [I.P.] x 2 administered 3 hr and 30 min prior to administering the irritant, according to Winter's protocol. Evaluation of the induced edema was made by injecting 2% carrageenan in 0.9% saline into the plantar region of the foot. The opposite foot injected with 0.9% isotonic saline was used as a base line. […] Salmonella abortus equi [Lot # 69F4003] […] Drugs from 2 to 16 mg/kg, I.P. were administered 2 hr prior and 2 hr post-injection of the LPS and then subsequently for every 24 hr for the length ofthe animals' lives. Deaths were recorded every 12 hr and continued for 96 hr. […] In vitro TNFa andIL-1 Measurements and Cellular Regulation IC-21 mouse macrophages were maintained in RPMI-1640 + 10% FCS + P/S. After the cells had grown to confluency, E. coli LPS at 10 Ixg/ml was added to the medium. Agents were incubated at 12.5 to 100 µM final concentration for 18 hr. The medium (100 btl) was collected for TNFCt determinations. Interleukin-1 [IL-1] release was determined using P388D1 cells which were maintained in RPMI-1640 + 10% FCS + P/S. The L929 bioassay was used to quantitate the TNF and the IL-1 levels. The L929 mouse fibroblasts were grown in DMEM + 10% FCS + P/S to confluency in 96 well plates and incubated with 100 tl ofmedium from […] or P388D cells after 18 hr. The cells were stained with 0.2% crystal violet in 20% MeOH and read at 580 nm using a Molecular Devices scanner (SOFT-max program). High Affinity Binding to Receptors on L929-106 Cells Two laCi of 125I-TNFct (human recombinant, 30 mCi/tg New England Nuclear) or 125I-IL-1 (70-120[.t Ci/lxg,New England Nuclear) was added to confluency L929 cells for 90 min or 5 hr, respectively with 25, 50 and 100 tM of the test compounds 12]. The cells were washed repeatedly with isotonic saline, pH.7.2 and aliquots counted. Prostaglandin cylcooxygenase activity Mouse J774AI macrophages maintained in Dulbecco's modified Eagle's medium + 15% FCS + P/S. Cells (5 x 106) were incubated with agents (5 to 100 ].tM final concentration) and 3H-arachidonic acid (100 Ci/mol) for 60 min at 37C in a CO2 incubator. The reaction was terminated with 2N HCI, the mixture extracted 2 X with ether, and the organic layer evaporated.
# [5] = target: J774-A1 prostaglandin cyclooxygenase; assay: Prostaglandin cyclooxygenase activity in J774-A1 macrophages; type: cell-based, mouse; settings: 60 min; read-out: IC50 Cyclo-oxygenase J774-A1
# Excerpt: as §1
# [6] = target: IC-21 macrophage elastase; assay: Elastase activity in IC-21 macrophages; type: biochemical, mouse
# [7] = system: cytokine synthesis and release; settings: tissue culture; no reference given; read-out: IC50 to block cytokine synthesis and release; cited from earlier work
# [8] = system: CF1 male mice, LPS Salmonella abortus equi induced death; assay: Protection against septic shock (LPS induced endotoxic shock); type: in vivo
# [9] = 8 mg/Kg X 2, I.P., CF1 male mice, N=6
# [10] = 16 mg/Kg X 2, I.P., CF1 male mice, N=6
Structure (SMILES),"Percent of Control (induced edema) [1, 9]","Percent of Control (induced edema) [1, 10]",IC50 ([2]; 60 min),IC50 ([2]; 120 min),IC50 ([3]; 120 min),Percent Survival at 52 hr ([4]; 4 mg/Kg I.P.),Percent Survival at 52 hr ([4]; 8 mg/Kg I.P.),protection from LPS induced death ([4]; 16 mg/kg),IC50 [5],IC50 ([6]; 60 min),IC50 ([6]; 120 min),IC50 ([3]; 60 min),Percent Survival at 52 hr ([4]; 16 mg/Kg I.P.),also measured
O=S(=O)(O)c1cc2c(O)c(c1)Cc1cc(S(=O)(=O)O)cc(c1O)Cc1cc(S(=O)(=O)O)cc(c1O)Cc1cc(S(=O)(=O)O)cc(c1O)Cc1cc(S(=O)(=O)O)cc(c1O)Cc1cc(S(=O)(=O)O)cc(c1O)Cc1cc(S(=O)(=O)O)cc(c1O)Cc1cc(S(=O)(=O)O)cc(c1O)C2 [Compound 1],51 + 4% of Control,56+ 5% of Control,57 µM,56 µM,360 µM,50%,50%,83%,20.6 µM,54 µM,45 µM,,,reduction of edema [1]: greater than 40%
"C[C@@H]1C[C@H]2[C@@H]3CCC4=CC(=O)C=C[C@]4(C)[C@@]3(F)[C@@H](O)C[C@]2(C)[C@@]1(O)C(=O)CO [dexamethasone, reference compound]",,,,,,,,,,,,,,protection from LPS induced death ([4]; dexamethasone dose printed 'at mg/kg' (methods: 1 mg/kg)): 67%
N=C(N)c1ccc(OCCCCCOc2ccc(C(=N)N)cc2)cc1 [pentamidine],,,,,,,,,,,,,,IC50 [7]: 1 µM
O=S(=O)(O)c1cc2c(O)c(c1)Cc1cc(S(=O)(=O)O)cc(c1O)Cc1cc(S(=O)(=O)O)cc(c1O)Cc1cc(S(=O)(=O)O)cc(c1O)C2 [Compound 3],58 + 6% of Control,61 +5% of Control,73 µM,25 µM,280 µM,50%,100%,,27.7 µM,73 µM,25 µM,10 to 30 µM,50%,"IC50 ([3]; 60 min, listed as #3): 28.8 µM; Percent Survival at 52 hr ([4]; 2 mg/kg I.P.): 67%; protection from LPS induced death ([4]; 8 mg/kg): 100%"
COc1c2cc(S(=O)(=O)O)cc1Cc1cc(S(=O)(=O)O)cc(c1OC)Cc1cc(S(=O)(=O)O)cc(c1OC)Cc1cc(S(=O)(=O)O)cc(c1OC)Cc1cc(S(=O)(=O)O)cc(c1OC)Cc1cc(S(=O)(=O)O)cc(c1OC)Cc1cc(S(=O)(=O)O)cc(c1OC)Cc1cc(S(=O)(=O)O)cc(c1OC)C2 [Compound 4],56 + 6% of Control,48+4% of Control,54 µM,45 µM,270 µM,33%,67%,83%,59.2 µM,57 µM,56 µM,0.3 µM,83%,reduction of edema [1]: greater than 40%
C[C@]12CCC(=O)C=C1CC[C@@H]1[C@@H]2[C@@H](O)C[C@@]2(C)[C@H]1CC[C@]2(O)C(=O)CO [hydrocortisone],,,,,,,,,,,,,,IC50 [7]: 10 µM
"CCCCC1C(=O)N(c2ccccc2)N(c2ccccc2)C1=O [Phenylbutazone, phenylbutazone, reference compound]",,,,,,,,,,,,,,reduction in edema ([1]; 50 mg/kg X 2): 47%
"CC(=O)CCCCn1c(=O)c2c(ncn2C)n(C)c1=O [Pentoxifylline, pentoxifylline]",,,,,,,,,,,,,,"Percent of Control (induced edema) ([1]; 50 mg/Kg X 2, CF1 male mice): 70 + 6% of Control; Percent Survival at 52 hr ([8]; 50 mg/Kg/day): 67 + 6%; protection from LPS induced death ([8]; 50 mg/kg): 67%"
O=S(=O)(O)c1cc2c(O)c(c1)Cc1cc(S(=O)(=O)O)cc(c1O)Cc1cc(S(=O)(=O)O)cc(c1O)Cc1cc(S(=O)(=O)O)cc(c1O)Cc1cc(S(=O)(=O)O)cc(c1O)Cc1cc(S(=O)(=O)O)cc(c1O)C2 [Compound 2],47 + 4% of Control,74+ 5% of Control,67 µM,57 µM,240 µM,50%,50%,83%,76.2 µM,,,7.9 µM,83%,Percent Survival at 52 hr ([4]; 2 mg/kg I.P.): 83%
COc1c2cc(S(=O)(=O)[O-])cc1Cc1cc(S(=O)(=O)[O-])cc(c1OC)Cc1cc(S(=O)(=O)[O-])cc(c1OC)Cc1cc(S(=O)(=O)[O-])cc(c1OC)C2.[Na+].[Na+].[Na+].[Na+] [Compound 5],,61 +5% of Control,,,,,33%,67%,65.1 µM,,111 µM,,67%,IC50 Elastase J774-A1 ([3]; 120 min): Increased

# — article PMC2365101, “Anti-Inflammatory Activity of (Polyphenolic)-Sulfonates and Their Sodium Salts in Rodents” (Metal-Based Drugs, 1998)
